Data taken from ChEMBL document CHEMBL1687943, “Synthesis of new glycyrrhetinic acid derived ring A azepanone, 29-urea and 29-hydroxamic acid derivatives as selective 11β-hydroxysteroid dehydrogenase 2 inhibitors” (Bioorg Med Chem, 2011).

Tests used:
[1] = biological target: T1, 11-beta-hydroxysteroid dehydrogenase 1 (Homo sapiens, UniProt P28845); conditions: HEK293, at 1000 nM
Target sequence in this assay (P28845 whole entry, looked up): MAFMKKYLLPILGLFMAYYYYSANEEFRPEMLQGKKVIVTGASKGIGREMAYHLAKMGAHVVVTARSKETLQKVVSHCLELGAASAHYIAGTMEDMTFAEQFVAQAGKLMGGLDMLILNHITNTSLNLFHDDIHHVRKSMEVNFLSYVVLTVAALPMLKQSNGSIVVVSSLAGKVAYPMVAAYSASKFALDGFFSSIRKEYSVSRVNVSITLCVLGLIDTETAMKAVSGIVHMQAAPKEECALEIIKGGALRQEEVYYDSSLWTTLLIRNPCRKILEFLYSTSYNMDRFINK
Description: Inhibition of human recombinant 11beta-HSD1 expressed in HEK293 cells assessed as residual conversion of [1,2-[3H]cortisone to cortisol at 1000 nM after 10 mins by scintillation counting

[2] = biological target: T2, 11-beta-hydroxysteroid dehydrogenase type 2 (Homo sapiens) (UniProt P80365); conditions: HEK293, at 1000 nM
T2 sequence (whole entry): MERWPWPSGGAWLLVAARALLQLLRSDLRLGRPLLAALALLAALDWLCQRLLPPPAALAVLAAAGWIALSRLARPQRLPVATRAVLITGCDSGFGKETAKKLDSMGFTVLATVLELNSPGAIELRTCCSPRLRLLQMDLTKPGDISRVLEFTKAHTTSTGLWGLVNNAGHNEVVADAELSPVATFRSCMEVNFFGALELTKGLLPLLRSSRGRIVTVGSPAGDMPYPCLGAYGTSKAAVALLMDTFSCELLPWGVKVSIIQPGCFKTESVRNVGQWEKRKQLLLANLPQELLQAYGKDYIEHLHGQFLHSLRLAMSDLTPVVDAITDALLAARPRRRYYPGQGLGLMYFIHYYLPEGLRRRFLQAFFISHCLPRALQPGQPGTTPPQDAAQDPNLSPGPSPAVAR
Description: Inhibition of human 11beta-HSD2 expressed in HEK293 cells assessed as residual conversion of [1,2,6,7-[3H]cortisol to cortisone at 1000 nM after 10 mins by scintillation counting

[3] = biological target: T1, 11-beta-hydroxysteroid dehydrogenase 1; conditions: HEK293, at 200 nM
Target sequence in this assay (P28845 whole entry, looked up): as the sequence (P28845 whole entry, looked up) above
Description: Inhibition of human recombinant 11beta-HSD1 expressed in HEK293 cells assessed as residual conversion of [1,2-[3H]cortisone to cortisol at 200 nM after 10 mins by scintillation counting

[4] = biological target: T2, 11-beta-hydroxysteroid dehydrogenase type 2 (Homo sapiens); conditions: HEK293, at 200 nM
Description: Inhibition of human 11beta-HSD2 expressed in HEK293 cells assessed as residual conversion of [1,2,6,7-[3H]cortisol to cortisone at 200 nM after 10 mins by scintillation counting

[5] = biological target: T1, 11-beta-hydroxysteroid dehydrogenase 1; assay: Inhibition of human recombinant 11beta-HSD1 expressed in HEK293 cells assessed as conversion of [1,2-[3H]cortisone to cortisol after 10 mins by scintillation counting; assay type: cell-based
Target sequence in this assay (P28845 whole entry): as the sequence (P28845 whole entry, looked up) above

[6] = biological target: T3, 11-beta-hydroxysteroid dehydrogenase type 2 (Homo sapiens, UniProt P80365); assay: Inhibition of human 11beta-HSD2 expressed in HEK293 cells assessed as conversion of [1,2,6,7-[3H]cortisol to cortisone after 10 mins by scintillation counting; assay type: cell-based
T3 sequence (P80365 whole entry): T2 sequence (whole entry)

[7] = biological target: T1, 11-beta-hydroxysteroid dehydrogenase 1; conditions: HEK293, at 1 µM
Target sequence in this assay (P28845 whole entry, looked up): as the sequence (P28845 whole entry, looked up) above
Description: Inhibition of human recombinant 11beta-HSD1 expressed in HEK293 cells assessed as conversion of [1,2-[3H]cortisone to cortisol at 1 uM after 10 mins by scintillation counting

Row | SMILES | residual activity [1] | residual activity [3] | residual activity [4] | other results
1 | CC(=O)N[C@H]1CC[C@]2(C)[C@H]3C(=O)C=C4[C@@H]5C[C@@](C)(C(=O)O)CC[C@]5(C)CC[C@@]4(C)[C@]3(C)CC[C@H]2C1(C)C | 36% | – | – | residual activity [2]: 0.2%
2 | CC(=O)O[C@H]1CC[C@]2(C)[C@H]3C(=O)C=C4[C@@H]5C[C@@](C)(NC(=O)NCCO)CC[C@]5(C)CC[C@@]4(C)[C@]3(C)CC[C@H]2C1(C)C | – | 97% | 38% | –
3 | CC1(C)[C@@H](Oc2noc(=O)[nH]2)CC[C@]2(C)[C@H]3C(=O)C=C4[C@@H]5C[C@@](C)(NC(N)=O)CC[C@]5(C)CC[C@@]4(C)[C@]3(C)CC[C@@H]12 | – | 81% | 24% | IC50 [5]: > 40 µM; IC50 [6]: > 4 µM
4 | CC1(C)[C@@H](O)CC[C@]2(C)[C@H]3C(=O)C=C4[C@@H]5C[C@@](C)(C(=O)O)CC[C@]5(C)CC[C@@]4(C)[C@]3(C)CC[C@@H]12 | 16% | – | – | inhibition [7]: 83.9%
5 | CC(=O)O[C@H]1CC[C@]2(C)[C@H]3C(=O)C=C4[C@@H]5C[C@@](C)(NC(=O)N(C)O)CC[C@]5(C)CC[C@@]4(C)[C@]3(C)CC[C@H]2C1(C)C | – | 96% | 110% | –
6 | CC(=O)O[C@H]1CC[C@]2(C)[C@H]3C(=O)C=C4[C@@H]5C[C@@](C)(NC(=O)N(CCO)CCO)CC[C@]5(C)CC[C@@]4(C)[C@]3(C)CC[C@H]2C1(C)C | – | 102% | 93% | –
7 | CN(O)C(=O)[C@@]1(C)CC[C@]2(C)CC[C@]3(C)C(=CC(=O)[C@@H]4[C@@]5(C)CCC(=O)NC(C)(C)[C@@H]5CC[C@]43C)[C@@H]2C1 | – | 73% | – | IC50 [5]: > 40 µM
8 | CC(=O)O[C@H]1CC[C@]2(C)[C@H]3C(=O)C=C4[C@@H]5C[C@@](C)(NC(=O)NO)CC[C@]5(C)CC[C@@]4(C)[C@]3(C)CC[C@H]2C1(C)C | – | 92% | 34% | –
9 | CC(=O)O[C@H]1CC[C@]2(C)[C@H]3C(=O)C=C4[C@@H]5C[C@@](C)(C(=O)O)CC[C@]5(C)CC[C@@]4(C)[C@]3(C)CC[C@H]2C1(C)C | 12% | – | – | –
10 | CC1(C)/C(=N/O)CC[C@]2(C)[C@H]3C(=O)C=C4[C@@H]5C[C@@](C)(C(=O)O)CC[C@]5(C)CC[C@@]4(C)[C@]3(C)CC[C@@H]12 | – | – | – | residual activity [2]: 1%
11 | CC(=O)O[C@H]1CC[C@]2(C)[C@H]3C(=O)C=C4[C@@H]5C[C@@](C)(NC(=O)NS(C)(=O)=O)CC[C@]5(C)CC[C@@]4(C)[C@]3(C)CC[C@H]2C1(C)C | – | 90% | 20% | –
12 | CC1(C)[C@@H](O)CC[C@]2(C)C3=CC(=O)[C@H]4[C@@H]5C[C@@](C)(C(=O)O)CC[C@]5(C)CC[C@@]4(C)[C@]3(C)CC[C@@H]12 | – | 77% | 85% | –
13 | CC1(C)NC(=O)CC[C@]2(C)[C@H]3C(=O)C=C4[C@@H]5C[C@@](C)(C(=O)O)CC[C@]5(C)CC[C@@]4(C)[C@]3(C)CC[C@@H]12 | 43% | – | – | residual activity [2]: 21%
14 | CC1(C)[C@@H](OC(=O)CCC(=O)O)CC[C@]2(C)[C@H]3C(=O)C=C4[C@@H]5C[C@@](C)(C(=O)O)CC[C@]5(C)CC[C@@]4(C)[C@]3(C)CC[C@@H]12 | 12% | – | – | –
15 | CC1(C)C(=O)CC[C@]2(C)[C@H]3C(=O)C=C4[C@@H]5C[C@@](C)(C(=O)O)CC[C@]5(C)CC[C@@]4(C)[C@]3(C)CC[C@@H]12 | 36% | – | – | –
16 | CC1(C)C(=O)CC[C@]2(C)[C@H]3C(=O)C=C4[C@@H]5C[C@@](C)(NC(N)=O)CC[C@]5(C)CC[C@@]4(C)[C@]3(C)CC[C@@H]12 | – | – | – | IC50 [5]: > 10 µM
